Assay [1] has as its target isolated recombinant JAK1 kinase domain (Homo sapiens (Human), UniProt P23458). Nature of the assay: JAK1 enzyme assay (Caliper LabChip, Ki). In kind it is biochemical. The following applies: isolated recombinant JAK1 kinase domain, 1.5 nM enzyme, ATP 25 μM.
Assay [2] has as its target isolated recombinant JAK2 kinase domain (Homo sapiens (Human), UniProt O60674). Nature of the assay: JAK2 enzyme assay (Caliper LabChip, Ki). The assay is classed as biochemical. Conditions: isolated recombinant JAK2 kinase domain, 0.2 nM enzyme, ATP 25 μM.

Sequence of isolated recombinant JAK2 kinase domain (O60674 849-1124): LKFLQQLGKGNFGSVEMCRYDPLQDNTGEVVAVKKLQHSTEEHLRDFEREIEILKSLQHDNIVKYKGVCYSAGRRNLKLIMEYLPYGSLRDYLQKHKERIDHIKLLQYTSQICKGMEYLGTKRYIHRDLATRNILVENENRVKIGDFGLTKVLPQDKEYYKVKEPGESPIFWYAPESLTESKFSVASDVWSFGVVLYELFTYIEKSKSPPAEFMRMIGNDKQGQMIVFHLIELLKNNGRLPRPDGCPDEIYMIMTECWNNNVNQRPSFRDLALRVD
Sequence of isolated recombinant JAK1 kinase domain (P23458 875-1153): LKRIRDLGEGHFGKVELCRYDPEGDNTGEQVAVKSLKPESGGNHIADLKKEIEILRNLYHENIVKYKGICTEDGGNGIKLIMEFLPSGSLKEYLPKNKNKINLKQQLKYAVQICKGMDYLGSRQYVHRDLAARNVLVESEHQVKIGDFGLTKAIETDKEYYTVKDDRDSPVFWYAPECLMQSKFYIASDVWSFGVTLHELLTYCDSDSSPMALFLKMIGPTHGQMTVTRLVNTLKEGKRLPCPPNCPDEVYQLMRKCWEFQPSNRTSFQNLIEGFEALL

As for `CSCCN1CCN(C(=O)Cn2cc(Nc3nc4c(N5CC6CCC(C5)N6C(=O)N5CC(C(F)(F)F)C5)cccn4n3)cn2)CC1` [Example 186, 1-[4-(2-methylsulfanylethyl)piperazin-1-yl]-2-[4-[[8-[8-(3-(trifluoromethyl)azetidine-1-carbonyl]-3,8-diazabicyclo[3.2.1]octan-3-yl]-[1,2,4]triazolo[1,5-a]pyridin-2-yl]amino]pyrazol-1-yl]ethanone; formic acid], the Ki in assay [1] and in assay [2] was 200 pM throughout.

For the compound `CN1CCN(C(=O)Cn2cc(Nc3nc4c(N5CC6CCC(C5)N6C(=O)N5CCC(F)(F)CC5)cccn4n3)cn2)CC1` [Example 188, 2-[4-[[8-[8-(4,4-difluoropiperidine-1-carbonyl)-3,8-diazabicyclo[3.2.1]octan-3-yl]-[1,2,4]triazolo[1,5-a]pyridin-2-yl]amino]pyrazol-1-yl]-1-(4-methylpiperazin-1-yl)ethanone], the Ki in assay [1] and in assay [2] was 200 pM each time.

As to `N#CC1(CNC2CCN(C(=O)Cn3cc(Nc4nc5c(N6CC7CCC(C6)N7C(=O)C6CC(C(F)(F)F)C6)cccn5n4)cn3)CC2)CC1` (stereo not drawn) [Example 190, 1-[[[1-[2-[4-[[8-[8-[3-(trifluoromethyl)cyclo-butanecarbonyl]-3,8-diazabicyclo[3.2.1]octan-3-yl]-[1,2,4]triazolo[1,5-a]pyridin-2-yl]amino]pyrazol-1-yl]acetyl]-4-piperidyl]amino]methyl]-cyclopropanecarbonitrile], the Ki in assay [1] was found to be 1000 pM; in assay [2] it was 1800 pM.

For `N#CC1(CNC2CCN(C(=O)Cn3cc(Nc4nc5c(N6CC7CCC(C6)N7C(=O)C6CC(C(F)(F)F)C6)cccn5n4)cn3)CC2)CC1` (stereo not drawn) [Example 191, 1-[[[1-[2-[4-[[8-[8-[3-(trifluoromethyl)cyclo-butanecarbonyl]-3,8-diazabicyclo[3.2.1]octan-3-yl]-[1,2,4]triazolo[1,5-a]pyridin-2-yl]amino]pyrazol-1-yl]acetyl]-4-piperidyl]amino]methyl]-cyclopropanecarbonitrile], the Ki in assay [1] came out at 3500 pM; in assay [2], 7800 pM.

In the case of `CN(CC1(C#N)CC1)C1CCN(C(=O)Cn2cc(Nc3nc4c(N5CC6CCC(C5)N6C(=O)C5CC(C(F)(F)F)C5)cccn4n3)cn2)CC1` (stereo not drawn) [Example 192, 1-[[methyl-[1-[2-[4-[[8-[8-[3-(trifluoromethyl)cyclo-butanecarbonyl]-3,8-diazabicyclo[3.2.1]octan-3-yl]-[1,2,4]triazolo[1,5-a]alpyridin-2-yl]amino]pyrazol-1-yl]acetyl]-4-piperidyl]amino]methyl]-cyclopropanecarbonitrile], the Ki in assay [1] was determined as 900 pM; in assay [2], 1100 pM.

Turning to `CN(CC1(C#N)CC1)C1CCN(C(=O)Cn2cc(Nc3nc4c(N5CC6CCC(C5)N6C(=O)C5CC(C(F)(F)F)C5)cccn4n3)cn2)CC1` (stereo not drawn) [Example 193, 1-[[methyl-[1-[2-[4-[[8-[8-[3-(trifluoromethyl)cyclobutanecarbonyl]-3,8-diazabicyclo[3.2.1]octan-3-yl]-[1,2,4]triazolo[1,5-a]pyridin-2-yl]amino]pyrazol-1-yl]acetyl]-4-piperidyl]amino]methyl]-cyclopropanecarbonitrile], the Ki came out at 600 pM in assay [1] and 700 pM in assay [2].

In the case of `O=C(Cn1cc(Nc2nc3c(N4CC5CCC(C4)N5C(=O)N4CC(C(F)(F)F)C4)cccn3n2)cn1)N1CCN(C2COC2)CC1` [Example 194, 1-[4-(oxetan-3-yl)piperazin-1-yl]-2-[4-[[8-[8-[3-(trifluoromethyl)azetidine-1-carbonyl]-3,8-diazabicyclo[3.2.1]octan-3-yl]-[1,2,4]triazolo[1,5-a]pyridin-2-yl]amino]pyrazol-1-yl]ethanone], the inhibition constant (Ki) in assay [1] worked out at 900 pM; in assay [2] it was 400 pM.

Consider `CN1CCN(C(=O)Cn2cc(Nc3nc4c(N5C[C@H]6CC[C@@H](C5)[C@H]6OCc5cccc(CO)c5)cccn4n3)cn2)CC1` [Example 195, 1-(4-methylpiperazin-1-yl)-2-[4-[[8-[rac-(1S,5R)-8-[[3-(hydroxymethyl)phenyl]methoxy]-3-azabicyclo[3.2.1]octan-3-yl]-[1,2,4]triazolo[1,5-a]pyridin-2-yl]amino]pyrazol-1-yl]ethanone], for which the Ki in assay [1] came to 400 pM; in assay [2] it was 700 pM.

`CN1CCN(C(=O)Cn2cc(Nc3nc4c(N5CC6CCC(C5)N6C(=O)c5cnc(CC(F)(F)F)s5)cccn4n3)cn2)CC1` [Example 196]: the Ki in assay [1] amounted to 600 pM; in assay [2], 1100 pM.

Turning to `CSCCN1CCN(C(=O)Cn2cc(Nc3nc4c(N5CC6CCC(C5)N6C(=O)C5CC(C(F)(F)F)C5)cccn4n3)cn2)CC1` (stereo not drawn) [Example 197, 1-[4-(2-methylsulfanylethyl)-piperazin-1-yl]-2-[4-[[8-[8-[3-(trifluoromethyl)-cyclobutanecarbonyl]-3,8-diazabicyclo[3.2.1]octan-3-yl]-[1,2,4]triazolo[1,5-a]pyridin-2-yl]amino]pyrazol-1-yl]ethanone], the Ki in assay [1] and in assay [2] was 300 pM each time.

`CSCCN1CCN(C(=O)Cn2cc(Nc3nc4c(N5CC6CCC(C5)N6C(=O)C5CC(C(F)(F)F)C5)cccn4n3)cn2)CC1` (stereo not drawn) [Example 198, 1-[4-(2-methylsulfanylethyl)-piperazin-1-yl]-2-[4-[[8-[8-[3-(trifluoromethyl)-cyclobutanecarbonyl]-3,8-diazabicyclo[3.2.1]octan-3-yl]-[1,2,4]triazolo[1,5-a]pyridin-2-yl]amino]pyrazol-1-yl]ethanone]: the results for the Ki in assay [1] and in assay [2] were 800 pM and 2100 pM, respectively.

As for `CN1CCN(C(=O)Cn2cc(Nc3nc4c(N5CC6CCC(C5)N6C(=O)c5cccc(C#N)c5)cccn4n3)cn2)CC1` [Example 199, 3-[3-[2-[[1-[2-(4-methylpiperazin-1-yl)-2-oxo-ethyl]pyrazol-4-yl]amino]-[1,2,4]triazolo[1,5-a]pyridin-8-yl]-3,8-diazabicyclo[3.2.1]octane-8-carbonyl]benzonitrile], the Ki in assay [1] stood at 1300 pM; in assay [2] it was 2100 pM.

Source of the values: US10189836B2, “Therapeutic compounds, compositions and methods of use thereof” (Genentech, Inc., priority 2015, dated 2019).
